Data published in patent publication US6491922B1, “Methods and compounds for treating autoimmune and vascular disease” (Cornell Research Foundation, Inc., priority 1996, dated 2002).
Entries after “also recorded” stand apart in the source; their conditions may differ.

Experiments:
THP-1 cells [1] = test: THP-1 cell viability; type: cell-based, human; conditions: LPG 0.01 to 2 μM, data not shown
[2] = test system: murine nitric oxide synthase activity; test: Nitrite production (Griess assay) in RAW 264.7 cells; type: cell-based
Protocol: RAW 264.7 cells were treated with LPG 1 μM and simultaneously stimulated with endotoxin and mIFN-γ. Supernatants from each treatment condition were removed at 24, 48, and 72 hours, and nitrite production was measured by the Griess assay.
To determine whether LPG can alter NOS expression, a well characterized murine macrophage cell line, RAW 264.7 cells, were used to measure NOS activity. […] Because macrophages encounter LPG usually in the context of entry of the parasite, it was examined whether Leishmania promastigotes, upon entry into macrophages, transfer LPG onto the macrophage cell surfaces and inhibit nitrite production. L. donovani prosmastigotes (“Ld3”) within 15 minutes of attachment to human monocytes, THP-1 cells, or murine peritoneal macrcophages transferred LPG onto the surface of the macrophages, as determined by a monoclonal antibody against LPG and indirect fluorescent microscopy. Two hours after entering murine peritoneal macrophages, Ld3 promastigoes suppressed endotoxin- and IFN-γ induction of NOS activity; the inhibition was parasite dose dependent.

NOS mRNA = type: cell-based, human; conditions: IFN-γ-primed macrophages; LPG 2 μM pretreatment; RT/PCR
THP-1 cells [3] = test: LPG and LPG fragment binding to THP-1 cells (indirect immunofluorescence, FACS); set-up: species or system human; conditions: LPG 1 μM
GAPDH mRNA = test: GAPDH control transcript (Northern analysis, nuclear run-off); type: cell-based, human

Substance: lipophosphoglycan [LPG]
- effect on cell viability (THP-1 cells [1]): not affected
- effect on nitrite production ([2]; RAW 264.7, LPG 1 μM simultaneous with endotoxin and IFN-γ): inhibited the enhancement of nitrite production
- reversal of the inhibition by higher amounts of agonists ([2]; higher amounts of endotoxin and IFN-γ): could not reverse
- effect on M. tuberculosis-induction of NOS mRNA (NOS mRNA): suppressed
- time at which LPG binding was obvious (THP-1 cells [3]): 16 min
- LPG binding (THP-1 cells [3]; 1 h): significant LPG was bound
- effect on constitutive transcription of GAPDH mRNA (GAPDH mRNA; THP-1, Northern analysis): not affected; also recorded: no effect
- effect on GAPDH transcription (GAPDH mRNA; nuclear run-on assay (Example 35)): no effect
